# Source: PubChem BioAssay AID977607 (Broad Institute, 2014)
# Values joined by “and” are separate entries in the source; they are usually repeats but may differ in a detail not shown here. Equal entries are not always repeated. Active and inactive are the calls of the source.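 How the source made its calls: active means curve reaches 40% activation over neutral controls at an AC40 no higher than the top valid tested concentration; inconclusive means no clear call, values can overlap the other calls; inactive means signal moving opposite to the expected increase, and the rest.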
# System: INS-1E GLuc insulin secretion reporter, luminescence, 2-3 h
# Assay: GLuc-reported insulin release enhancers, glucose-stimulated beta cells – cell-based, INS-1E, Gaussia luciferase, luminescence, cherry-pick, set 2, dose response (AID 977607)
row,Compound,AC40
1,Cc1ccc(-n2ncc3c(=O)n(CC(=O)Nc4cccc(Cl)c4)cnc32)cc1C,6.37 µM
2,O=C(OCC12CC3CC(CC(C3)C1)C2)c1ccc(NCc2cc(O)ccc2O)cc1,14.9 µM
3,Cc1ccccc1-c1ccc(C2[C@@H]3CN(S(=O)(=O)c4ccccc4C)C[C@H]2N3)cc1 (stereo not given in full),9.88 µM
4,C=CCOc1ccc(-c2nc3c(c(=O)[nH]c(=O)n3CCCC)n2C)cc1Br,11.1 µM
5,CC(C)Nc1nc(Cl)nc(NC(C)C)n1,11.6 µM
6,CCOC(=O)c1cn(-c2ccccc2)nc1-c1ccncc1,10.5 µM
7,Cc1ccc(CNc2nc(NCc3ccccc3)nc3ccsc23)c(C)c1,19.2 µM
8,COc1ccccc1CCn1cnc(-c2ccc(F)cc2)c1CC(C)C,7.14 µM
9,CC(=O)Nc1c(C(=O)C2CC2)oc2ccccc12,6.8 µM
10,COc1ccc(S(=O)(=O)Nc2ccccc2OC)cc1N=Nc1c(O)[nH]c(=S)[nH]c1=O,16.4 µM
11,C[C@@H]1CN([C@H](C)CO)S(=O)(=O)c2ccc(-c3ccc(F)cc3)cc2O[C@H]1CN(C)Cc1cccc(F)c1,15.5 µM
12,CCCCc1c(-c2ccccc2F)ncn1CCc1ccccc1OC,7.64 µM
13,OC[C@@H]1[C@@H](c2ccc(C#CC3CCCC3)cc2)[C@H]2CN(CCC(F)(F)F)CCCCN12,8.56 µM
14,CCOc1ccc(CN2C(=O)c3ccccc3C2=O)cc1C(=O)Nc1nnc(SCC)s1,13.6 µM
15,COC(=O)c1ccc(C(=O)Nc2cc(Cl)ccc2Cl)cc1NC(=O)c1ccccc1C,2.43 µM
16,CC1(C(=O)NS(=O)(=O)c2ccc(Cl)s2)CCN1C(=O)C1(c2ccccc2)CCCC1 (stereo not given),10.7 µM
17,COC(=O)C1=C(C)N(Cc2cccc(C(F)(F)F)c2)C(=NCc2ccc(C(F)(F)F)cc2)NC1c1ccccc1 (stereo not given),9.69 µM
18,O=C1CC(Sc2nnc(-c3ccccc3)o2)C(=O)N1c1ccccc1 (stereo not given),12.1 µM
19,CCCn1c2ccccc2c2cn[nH]c(=O)c21,16.4 µM
20,COC(=O)c1ccc2c(c1)NC(=O)C(N(CC(C)C)CC(C)C)S2 (stereo not given),5.29 µM
21,Cc1ccc(S(=O)(=O)N2C[C@@H]3N[C@H](C2)C3c2ccc(/C=C/c3ccccc3)cc2)cc1 (stereo not given in full),7.9 µM
22,CN1CCN(C2Cc3ccccc3Sc3cc(C(F)(F)F)ccc32)CC1 (stereo not given),16 µM

row,Compound,AC40
1,COc1ccc(/C=N/NC(=O)CCOc2ccccc2C)cc1OC,7.01 µM
2,Cc1ccc2c(Cl)c(C)c(N3CCCCC3)nc2n1,11.5 µM
3,C(=C\c1ccc(C2[C@@H]3CN(Cc4nccs4)C[C@H]2N3)cc1)/c1ccccc1 (stereo not given in full),17 µM
4,O=c1c2ccc(Cl)cc2[nH]c(=S)n1CCC1=CCCCC1,3.37 µM
5,O=c1c2cc(F)ccc2sn1-c1ccccc1Cl,1.85 µM
6,COc1ccc(NC(=O)c2sc3nc(N4CCOCC4)c4c(c3c2N)CC(C)(C)OC4)c(OC)c1,6.55 µM
7,CC(C)Sc1nc2c(c(=O)[nH]c(=O)n2C)n1Cc1ccc(Cl)cc1,19.9 µM
8,O=C(Nc1ccc(C(F)(F)F)cc1)N1C[C@@H]2N[C@H](C1)C2c1ccc(-c2ccccc2)cc1 (stereo not given in full),10.2 µM
9,C=CCN(Cc1ccc(OC)c(OC)c1)C(=O)N1CCOCC1,> 35 µM (inactive)
10,CCOc1ccc(-c2nnn(CC(=O)Nc3ccccc3OC)n2)cc1OCC,2.04 µM
11,COc1ccc2nc3ccccc3nc2c1NC(=O)c1ccc(Cl)cc1Cl,6.29 µM
12,COc1cc2c(cc1OC)-c1cc(Nc3ccccc3Br)nc(=O)n1CC2,0.366 µM
13,Cc1cc(C)c2nc(N(CCCN(C)C)C(=O)c3ccc4c(c3)CCCC4)sc2c1,6.21 µM
14,Cc1nc2c(=O)n(C)c(=O)n(C)c2nc1Cl,25.8 µM
15,C=CCNC(=S)N/N=C/c1ccc(-c2cc(Cl)ccc2Cl)o1,5.15 µM
16,CCC(=NC(C)c1ccccc1)c1c(O)[nH]c(=O)[nH]c1=O (stereo not given),11.1 µM
17,Cc1ccc(OCC(=O)NC(=S)Nc2cccc(NC(=O)c3ccccc3)c2)cc1,11.3 µM
18,Nc1c(C(=O)Nc2ccc3c(c2)OCCO3)nnn1Cc1ccc(Cl)cc1,12.7 µM
19,O=C(Nc1cccc(Cl)c1)Nc1nnc(CSCCOc2ccc(Cl)cc2)s1,5.57 µM
20,CCOc1ccc(/C=N/NC(=O)c2cc(-c3ccco3)nc3ccccc23)cc1,8.25 µM
21,COc1ccc(Cc2nnc(NC(=O)Cc3cccs3)s2)cc1OC,0.234 µM
22,COc1ccc(C(O)c2nc(-c3ccc(OC)c(OC)c3)cs2)cc1 (stereo not given),> 35 µM (inactive)

row,Compound,AC40
1,O=C(NN=Cc1ccccc1Cl)c1cccc2ccccc12,11.6 µM
2,O=C(NCC1OCCc2ccccc21)c1ccc(NC(=O)c2ccc(Cl)cc2Cl)cc1 (stereo not given),20.4 µM
3,Cc1ccc(NC(=O)CNC(=O)c2sc3ccccc3c2Cl)nc1,14.3 µM
4,O=C(NC(=S)Nc1ccc(NC(=O)c2cccs2)cc1)c1cc2ccccc2o1,14.3 µM
5,Cc1cccc(-c2ccc(C3[C@@H]4CN(C(=O)C5CCCCC5)C[C@H]3N4)cc2)c1 (stereo not given in full),18.5 µM
6,NC(c1csc(Nc2ccc(C(F)(F)F)cn2)n1)C1CCCCC1 (stereo not given),9.81 µM
7,Fc1cccc(-c2ccc(C3[C@@H]4CN(Cc5ccccc5F)C[C@H]3N4)cc2)c1 (stereo not given in full),5.28 µM
8,Cc1ccc2oc(-c3ccc(NC(=O)c4ccc5c(c4)OCO5)cc3)nc2c1,4.81 µM
9,CNc1nc(Cl)nc2c1ncn2-c1ccccc1,15.6 µM
10,CC(=O)c1nn(-c2ccc(Br)cc2)cc1C(=O)c1ccccc1,8.45 µM
11,Cc1ccc(-n2nc3ccc(NC(=O)c4ccco4)cc3n2)cc1,10.8 µM
12,CCOC(=O)C1(C)CCCCN1C(=O)c1cccc(Cl)c1 (stereo not given),> 35 µM (inactive)
13,CC(C)(C)c1ccccc1OCC(O)CN1CCN(c2ccccn2)CC1 (stereo not given),13.7 µM
14,Cc1ccc(-c2nnc3sc(-c4ccncc4)nn23)cc1,13.5 µM
15,COc1cc(CN2C[C@@H]3N[C@H](C2)C3c2ccc(/C=C/c3ccccc3)cc2)cc(OC)c1 (stereo not given in full),5.5 µM
16,CCOC(=O)c1nc(SC)n(C)c1C(=O)OCC,4.49 µM
17,CCOC(=O)c1c(-n2cnnn2)sc2c1CCCC2,14.6 µM
18,O=C(Nc1nc2ccccc2n1Cc1ccc(Cl)cc1)c1ccco1,7.18 µM
19,CCCCn1c(N2CCCC2)nc2c1c(=O)[nH]c(=O)n2C,5.57 µM
20,COc1ccc(/C=N/NC(=O)Cn2nnc3ccccc32)cc1OC,24.4 µM
21,CCCCc1c(-c2ccccc2OC)ncn1CCc1ccccc1,16.7 µM
22,COc1ccc(C)c2sc(N(CCCN(C)C)C(=O)c3ccc(S(=O)(=O)N4CCc5ccccc5C4)cc3)nc12,3.95 µM

row,Compound,AC40
1,COC(=O)C1=C(C)N(Cc2cccc(C(F)(F)F)c2)C(=NCc2ccc(OC)cc2)NC1c1ccc(F)cc1 (stereo not given),15.5 µM
2,COc1ccc(CCN(C)C(=O)COc2cccc(-n3cnnn3)c2)cc1OC,> 35 µM (inactive)
3,Cc1cc(C)nc(NS(=O)(=O)c2ccc(N/C=C/C(=O)c3ccc(Cl)c(Cl)c3)cc2)n1,3.7 µM
4,Cc1cccc(OCC(=O)Nc2ccc(NC(=O)c3ccco3)cc2)c1,17.8 µM
5,O=C1N/C(=N\N=C\c2cccs2)SC1Cc1cccc(Cl)c1 (stereo not given),9.04 µM
6,c1ccc(-c2nnc3ccc(N4CCC5(CC4)OCCO5)nn23)cc1,> 35 µM (inactive)
7,COc1ccccc1CCn1cnc(-c2cccc(F)c2)c1CC(C)C,11.3 µM
8,CN(C)CCCNc1cc(C(C)(C)C)nc2c(-c3ccc(Cl)cc3)cnn12,7.08 µM
9,COc1cc2cnc(-c3ccsc3)cc2cc1OC,0.826 µM
10,Cc1cccc(NC(=O)c2ccc(OCc3c(C)noc3C)cc2)c1C,1.54 µM
11,N#Cc1sc2nc3c(c(-c4cccnc4)c2c1N)CCC3,26.5 µM
12,CC(NCC(O)COCCC12CC3CC(CC(C3)C1)C2)c1ccccc1 (stereo not given),14.9 µM
13,NS(=O)(=O)c1ccc(N=Cc2c(O)n(C3CCCCC3)c(=O)n(C3CCCCC3)c2=O)cc1,16 µM
14,COc1ccc(CNCC(O)COc2ccc(C(C)(C)c3ccccc3)cc2)cc1 (stereo not given),6.55 µM
15,Cc1cccc(-c2ccc(C3[C@@H]4CN(Cc5cccc(F)c5)C[C@H]3N4)cc2)c1 (stereo not given in full),12.3 µM and 2.97 µM
16,COc1ccc(NC(=O)COc2ccc(C(=O)NC3CCCc4ccccc43)cc2OC)cc1 (stereo not given),6.54 µM
17,CC(=O)N(C1CC(C)C(C#N)(C#N)C1(C#N)C#N)N(C)C (stereo not given),1.85 µM
18,CN(C)S(=O)(=O)c1cccc(-n2sc3ccccc3c2=O)c1,4.6 µM
19,COc1cccc(-c2sc3ccccc3c2-c2ccc(OCCN(C)C)cc2)c1,3.37 µM
20,Cc1cc(C)cc(OCCCN2CCC(C(O)(c3ccccc3)c3ccccc3)CC2)c1,13 µM
21,CCSc1nnc(NC(=O)c2csc3c2CCCC3)s1,2.22 µM
22,Cc1cccc(C(C)C)c1NC(=O)COC(=O)c1cccc(S(=O)(=O)N2CCc3ccccc3C2)c1,10.9 µM

row,Compound,AC40
1,COc1ccc(C(C)NCCC(c2ccc(OC(C)C)cc2)c2ccccc2OC)cc1 (stereo not given),7.95 µM
2,C/C(=N\NC(=O)c1ccc(Cl)c(Cl)c1)c1ccc(Br)s1,9.32 µM
3,Clc1ccc(/C=N/NC2=Nc3cccc4cccc2c34)cc1,2.13 µM
4,CC(=O)Oc1ccc(Cl)cc1/C=C/c1ccc2ccccc2n1,24.9 µM
5,Cc1cc(OCCCN2CCC(C(O)(c3ccccc3)c3ccccc3)CC2)ccc1Br,4.77 µM
6,O=S(=O)(c1ccccc1F)N1C[C@@H]2N[C@H](C1)C2c1ccc(/C=C/c2ccccc2)cc1 (stereo not given in full),6.46 µM
7,COc1cc(OC)c2c3c(c(C4CCCCC4)nc2c1)CCC3,9.8 µM
8,O=c1c2ccccc2nc(-c2ccco2)n1/N=C/c1ccccc1O,14.7 µM
9,CCOc1ncccc1C(=O)Nc1ccc(S(=O)(=O)Nc2nc(C)cc(C)n2)cc1,33.2 µM
10,COc1ccc(C(=O)N=C2CCC(C#N)=C3c4cc(OC)c(OC)cc4CCN23)cc1,0.483 µM
11,N#CCc1nn(-c2ccccc2)c2ncnc(N)c12,11.9 µM
12,COc1cccc(-c2ccc(C3[C@@H]4CN(Cc5cccc(F)c5)C[C@H]3N4)cc2)c1 (stereo not given in full),4.47 µM
13,O=C(Nc1ccc(C(F)(F)F)cc1)N1C[C@@H]2N[C@H](C1)C2c1ccc(/C=C/c2ccccc2)cc1 (stereo not given in full),8.24 µM and 1.64 µM
14,O=C(NCc1ccccn1)c1coc(=O)c(Br)c1,2.01 µM
15,COc1ccc(-c2ccc(SCc3cccnc3)nn2)cc1OC,0.451 µM
16,CC(C)CCn1c(N2CCCC2)nc2c1c(=O)[nH]c(=O)n2C,31.7 µM
17,NC(CCc1ccccc1)c1csc(Nc2ccc(C(F)(F)F)cn2)n1 (stereo not given),10.4 µM
18,OC(CNCCC1C=Nc2ccccc21)Cn1c2ccc(Cl)cc2c2cc(Cl)ccc21 (stereo not given),4.84 µM
19,CC(C)(C)c1ccc(-c2cc(-c3ccccc3O)[nH]n2)cc1,6.61 µM
20,CCCCc1c(-c2cccc(OC)c2)ncn1CCc1ccccc1OC,11.8 µM
21,Cn1c(=O)c(C(=O)NNC(=O)c2cccc(Cl)c2)c(O)c2ccccc21,7.02 µM
22,COc1ccc(C#Cc2ccc([C@@H]3[C@@H](CO)N4CCCCN(Cc5ccccc5F)C[C@@H]34)cc2)cc1,14.3 µM
